Data on 1 substance can be found in patent publication US9173923B2, “Modulating innate immune cell activity by lunasin and selected cytokines” (Indiana University Research & Technology Corporation, priority 2011, dated 2015).

Data set [1] relates to peripheral blood mononuclear cells (PBMCs); CD3 negative and CD56 positive NK cell populations. Briefly: Intracellular cytokine staining of IFNγ in stimulated PBMCs of normal controls (flow cytometry). It counts as cell-based, human. Particulars: 1 day. On the procedure:
FIG. 1 IFNγ production by primary NK cells following stimulation. Human primary NK cells were isolated from peripheral blood mononuclear cells (PBMCs) of normal controls using positive selection with CD56 magnetic beads (Miltenyi Biotec Auburn. CA). […] At the last 6 hrs of stimulation, golgistop (monensin) was added to block the secretion of IFNγ. Stimulated PBMCs were surface stained with FITC-conjugated CD3 and PE-congugated CD56 monoclonal antibodies (BD), washed, fixed, and permeabilized. After washing, cells were incubated with APC-conjugated anti IFNγ monoclonal antibody. Expression of IFNγ was evaluated on 5000 events of gated CD3 negative and CD56 positive NK cell populations. The % of NK populations producing IFNγ is labeled at the upper right quadrant of the dot plot. (B) IFNγ production in the supernatants. […] The cell pellets from (B) were analyzed for gene expression using qPCR with Taqman Assay primers. […]
Following 1 day of stimulation, distinct cell populations that respond to stimulation were evaluated using intracellular cytokine staining for IFNγ production. […]
Aliquots of PBMCs isolated from healthy volunteer donors were cryopreserved in liquid nitrogen for the following assays. […] Expression of IFNγ was evaluated on 5000 events of gated CD3 negative and CD56 positive NK cell populations. […] The cell pellets were analyzed for gene expression using qPCR with Taqman Assay primers. […]
In general terms: Flow cytometry measures light scatter and fluorescence of single cells or particles in a stream.

In data set [2] the test system is NK cells isolated from lungs. Briefly: Ifng gene expression in lung NK cells of mice gavaged with lunasin. It counts as in vivo, Balb/c mice. Particulars: 4 mg lunasin by gavage for 3 consecutive days. On the procedure: FIG 24 Gene expression of Ifng from mice treated with lunasin. Balb/c mice were gavaged with […] of water only (H2O) or 4 mg of lunasin in […] water (Lunasin) for 3 consecutive days. One day after the last gavage. mice were sacrificed to collect the lungs. NK cells were isolated from lungs of each mouse using positive selection with DX5 magnetic beads (Miltenyi Biotec) followed by RNA extraction, cDNA synthesis and real time qPCR using Taqman assay primers (ABI). Gene expression for IFNg (Ifng) from lungs is presented as mean±SD from 2 mice in each group.
Balb/c mice were gavaged with 200 μl of water only (H2O) or 4 mg of lunasin in 200 μl water (Lunasin) for 3 consecutive days. One day after the last gavage, mice were sacrificed to collect the lungs and spleens. NK cells were isolated from each lung and spleen using positive selection with DX5 magnetic beads (Miltenyi Biotec) followed by RNA extraction, cDNA synthesis and real tune qPCR using Taqman assay primers (ABE). Gene expression for Ifng from lungs (upper panel) and spleens (lower pannel) is presented as mean±SD from 2 mice in each group.

Data set [3] deals with allergic inflammation. Description: LPS-induced asthma mouse model. It counts as in vivo, BABL/c mice. On the procedure:
FIG. 25 Lunasin-treated mice have reduced allergic inflammation in a mouse model of asthma. In LPS-induced asthma model BABL/c mice were sensitized intranasally with 0.1 μg of LPS at day 0, 1, and 2 with (LS) or without (Ctrl) lunasin peptide at 4 mg, and then challenged with 50 μg of OVA on days 19, 20 and 21. Another group of mice (LC) was sensitized as the Ctrl group followed by challenging with OVA in the presence of lunasin at 4mg. The total cell numbers (A) and differential cell numbers of eosinophils (B) were counted from the BAL fluid. Data are presented as mean±SD from 3 mice in each group. *,P<0.05; ns not-significant p>0.05. (C) Cells from draining lympho nodes (mediastinal) were stimulated with OVA, and the levels of IL-4 production in the supernatants were evaluated using ELISA. Data are presented as mean ±SD from 3 mice in each group. ***, P<0.005; ns, not-significant, p>0.05.
In LPS-induced asthma model, BABL/c mice were sensitized intranasally with 0.1 μg of LPS at day 0, 1, and 2 with (LS) or without (Ctrl) lunasin peptide at 4 mg, and then challenged with 50 ug of OVA on days 19, 20, and 21. […] The total cell numbers (A) and differential cell numbers of eosinophils (B) were counted from the BAL fluid. […] (C) Cells from draining lympho nodes (mediastinal) were stimulated with OVA, and the levels of IL-4 production in the supernatants were evaluated using ELISA. […]

The conditions of data set [4]: cited from earlier work.
Data set [5] relates to acetylation of histone H3 and H4. The settings on record: extracted from autoclaved soybean products or blood of rats fed LES; cited from earlier work.
The conditions of data set [6]: boiling; cited from earlier work.

With lunasin, the “IFNγ intracellular staining by cell population (NK, CD4 and CD8 T)” value in data set [1] is “NK but not CD4 or CD8 T populations respond”. Also, the “gene expression of Ifng in the lung” value in data set [2] is “increased gene expression of Ifng”. For the same substance, the “production of IL-4” value in data set [3] (draining lymph node cells stimulated with OVA, ELISA) is “reduced production of IL-4”. Further, the “cell counts in the bronchoalveolar lavage (BAL) fluid” value in data set [3] (lunasin 4 mg intranasal) is “lower cell counts”. For the same substance, in data set [4] (gavage), the “distribution of gavaged lunasin” value was “can be found in the lung and blood”. In addition, in data set [4] (oral), the “lunasin levels in the blood after oral consumption” value is given as “Significant levels of lunasin could be detected in the blood” and the “survival of digestion in the gastrointestinal tract” value is given as “survives digestion in the gastrointestinal tract”. For the same substance, the “bioactivity after autoclaving or feeding (inhibiting acetylation of histone H3 and H4)” value in data set [5] is listed as “still active”. The heat stability entry in data set [6] is “heat-stable”.
